Reference: US10875876B2, “Cyclized sulfamoylarylamide derivatives and the use thereof as medicaments for the treatment of hepatitis B” (priority 2015, dated 2020)
Where two headings read alike, the source gives them in different places.

Columns and labels:
HBV = assay: anti HBV activity, HepG2.117 cell line, intracellular HBV DNA by realtime PCR; assay type: cell-based; details: HepG2.117 cell line (Tet-off), 3 days of treatment, intracellular HBV DNA quantified by realtime PCR, read-out: HBV-AVE-HepG2.117 EC50
In short: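 Readout was intracellular HBV DNA by real-time PCR (HBV-specific primers and probe) after 3 days of compound exposure. Serial dilutions were tested in duplicate on HepG2.117 cells, a stable inducible HBV producer in which replication is switched on when doxycycline is absent.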

HepG2 cells = assay: Cytotoxicity in HepG2 cells, Resazurin assay; details: read-out: TOX-HepG2-4 d CC50; HepG2 cells incubated for 4 days, viability by Resazurin assay

Structure (SMILES) | EC50 (HBV; Hepatitis B virus, HepG2.117, 72 h) | CC50 (HepG2 cells) | EC50 (HBV)
Cc1cc(CC2(C)COc3c(cn(C)c3C(=O)Nc3cc(F)c(F)c(F)c3)S(=O)(=O)N2)no1 (single isomer, unassigned) [Compound 170b, 3,7-dimethyl-3-[(5-methylisoxazol-3-yl)methyl]-1,1-dioxo-N-(3,4,5-trifluorophenyl)-2,4-dihydropyrrolo[3,4-b][1,4,5]oxathiazepine-6-carboxamide] | 7 nM | > 25 µM | 
CC1C=Cc2c(cn(C)c2C(=O)Nc2ccc(F)c(F)c2)S(=O)(=O)N1 (single isomer, unassigned) [Compound 7b, N-(3,4-difluorophenyl)-3,7-dimethyl-1,1-dioxo-2,3-dihydropyrrolo-[3,4-f]thiazepine-6-carboxamide] |  | > 25 µM | 7 nM
C[C@@H]1Oc2c(cn(C)c2C(=O)Nc2ccnc(Br)c2)S(=O)(=O)N[C@@H]1CO [compound 236] |  | > 25 µM | 340 nM
Cn1cc2c(c1C(=O)Nc1ccc(F)c(C#N)c1)CCC(C(F)(F)F)NS2(=O)=O (single isomer, unassigned) [Compound 60b, N-(3-cyano-4-fluoro-phenyl)-7-methyl-1,1-dioxo-3-(trifluoromethyl)-2,3,4,5-tetrahydropyrrolo[3,4-f]thiazepine-6-carboxamide] |  | > 25 µM | 5 nM
C[C@@H]1Oc2c(cn(C)c2C(=O)Nc2ccc(F)c(C#N)c2)S(=O)(=O)N[C@@H]1CO [compound 235] |  | > 25 µM | > 500 nM
Cn1cc2c(c1C(=O)Nc1ccc(F)c(C#N)c1)OCC(C)(CO)NS2(=O)=O (single isomer, unassigned) [Compound 210b, N-(3-cyano-4-fluoro-phenyl)-3-(hydroxymethyl)-3,7-dimethyl-1,1-dioxo-2,4-dihydropyrrolo[3,4-b][1,4,5]oxathiazepine-6-carboxamide] |  | > 25 µM | 34 nM
Cn1cc2c(c1C(=O)Nc1ccc(F)c(C(F)F)c1)OC[C@H](C(O)C1CC1)NS2(=O)=O (stereo partly drawn) [Compound 115b, (3R)-3-[cyclopropyl(hydroxy)methyl]-N-[3-(difluoromethyl)-4-fluoro-phenyl]-7-methyl-1,1-dioxo-3,4-dihydro-2H-pyrrolo[3,4-b][1,4,5]oxathiazepine-6-carboxamide] |  | > 25 µM | 7 nM
CC(NCC(F)(F)F)C1CCc2c(cn(C)c2C(=O)Nc2cc(F)c(F)c(F)c2)S(=O)(=O)N1 (single isomer, unassigned) [Compound 218b, 7-methyl-1,1-dioxo-3-[1-(2,2,2-trifluoroethylamino)ethyl]-N-(3,4,5-trifluorophenyl)-2,3,4,5-tetrahydropyrrolo[3,4-f]thiazepine-6-carboxamide] |  | > 25 µM | 79 nM
Cn1cc2c(c1C(=O)Nc1ccnc(C(F)F)c1)OCC(C)(CO)NS2(=O)=O (single isomer, unassigned) [Compound 215b, N-[2-(difluoromethyl)-4-pyridyl]-3-(hydroxymethyl)-3,7-dimethyl-1,1-dioxo-2,4-dihydropyrrolo[3,4-b][1,4,5]oxathiazepine-6-carboxamide] |  | > 25 µM | > 125 nM
CC1CCn2c(C(=O)Nc3ccc(F)c(F)c3)nc(Br)c2S(=O)(=O)N1 (stereo not shown) [compound 245] |  | > 25 µM | > 25000 nM
CCC(O)[C@H]1COc2c(cn(C)c2C(=O)Nc2ccc(F)c(C#N)c2)S(=O)(=O)N1 (stereo partly drawn) [Compound 122b, (3R)—N-(3-cyano-4-fluoro-phenyl)-3-(1-hydroxypropyl)-7-methyl-1,1-dioxo-3,4-dihydro-2H-pyrrolo[3,4-b][1,4,5]oxathiazepine-6-carboxamide] |  | > 25 µM | 9 nM
Cc1cc(CC2(C)COc3c(cn(C)c3C(=O)Nc3ccc(F)c(C#N)c3)S(=O)(=O)N2)no1 (single isomer, unassigned) [Compound 220b, N-(3-cyano-4-fluoro-phenyl)-3,7-dimethyl-3-[(5-methylisoxazol-3-yl)methyl]-1,1-dioxo-2,4-dihydropyrrolo[3,4-b][1,4,5]oxathiazepine-6-carboxamide] |  | > 25 µM | 34 nM
Cn1cc2c(c1C(=O)Nc1ccnc(C(F)(F)F)c1)CCC(C(F)(F)F)NS2(=O)=O (single isomer, unassigned) [Compound 59b, 7-methyl-1,1-dioxo-3-(trifluoromethyl)-N-[2-(trifluoromethyl)-4-pyridyl]-2,3,4,5-tetrahydropyrrolo[3,4-f]thiazepine-6-carboxamide] |  | > 25 µM | 140 nM
CC(NCC(F)(F)F)C1COc2c(cn(C)c2C(=O)Nc2ccc(F)c(C#N)c2)S(=O)(=O)N1 (single isomer, unassigned) [Compound 161d, N-(3-cyano-4-fluoro-phenyl)-7-methyl-1,1-dioxo-3-[1-(2,2,2-trifluoroethylamino)ethyl]-3,4-dihydro-2H-pyrrolo[3,4-b][1,4,5]oxathiazepine-6-carboxamide] |  | > 25 µM | 11 nM
Cn1cc2c(c1C(=O)Nc1ccc(F)c(C#N)c1)CCC(C(C)(C)O)NS2(=O)=O (single isomer, unassigned) [Compound 116b, N-(3-cyano-4-fluoro-phenyl)-3-(1-hydroxy-1-methyl-ethyl)-7-methyl-1,1-dioxo-2,3,4,5-tetrahydropyrrolo[3,4-f]thiazepine-6-carboxamide] |  | > 25 µM | > 350 nM
Cn1cc2c(c1C(=O)Nc1ccc(F)c(F)c1)O[C@@H](C(F)(F)F)[C@H](CO)NS2(=O)=O [compound 244] |  | > 25 µM | > 500 nM
CC(C)C1C=Cc2c(cn(C)c2C(=O)Nc2ccc(F)c(F)c2)S(=O)(=O)N1 (single isomer, unassigned) [Compound 79b, N-(3,4-difluorophenyl)-3-isopropyl-7-methyl-1,1-dioxo-2,3-dihydropyrrolo[3,4-f]thiazepine-6-carboxamide] |  | > 25 µM | 2 nM
Cc1cc(CC2(C)COc3c(cn(C)c3C(=O)Nc3ccc(F)c(F)c3)S(=O)(=O)N2)n(C)n1 (single isomer, unassigned) [Compound 175b, N-(3,4-difluorophenyl)-3-[(2,5-dimethylpyrazol-3-yl)methyl]-3,7-dimethyl-1,1-dioxo-2,4-dihydropyrrolo[3,4-b][1,4,5]oxathiazepine-6-carboxamide] |  | > 25 µM | 3 nM
CC(C)C(O)C1COc2c(cn(C)c2C(=O)Nc2ccc(F)c(C#N)c2)S(=O)(=O)N1 (stereo not shown) [Compound 119b, N-(3-cyano-4-fluoro-phenyl)-3-(1-hydroxy-2-methyl-propyl)-7-methyl-1,1-dioxo-3,4-dihydro-2H-pyrrolo[3,4-b][1,4,5]oxathiazepine-6-carboxamide] |  | > 25 µM | 6 nM
CC1CCc2c(cn(C)c2C(=O)Nc2ccc(F)c(F)c2)S(=O)(=O)N1 (single isomer, unassigned) [Compound 10b, N-(3,4-difluorophenyl)-3,7-dimethyl-1,1-dioxo-2,3,4,5-tetrahydropyrrolo[3,4-f]thiazepine-6-carboxamide] |  | > 25 µM | 6 nM
Cn1cc2c(c1C(=O)Nc1cc(F)c(F)c(F)c1)OCC(C)(CO)NS2(=O)=O (single isomer, unassigned) [Compound 214b, 3-(hydroxymethyl)-3,7-dimethyl-1,1-dioxo-N-(3,4,5-trifluorophenyl)-2,4-dihydropyrrolo[3,4-b][1,4,5]oxathiazepine-6-carboxamide] |  | > 25 µM | 22 nM
Cn1cc2c(c1C(=O)Nc1ccc(F)c(Cl)c1)OC[C@H](C(O)C1CC1)NS2(=O)=O (single isomer, unassigned) [Compound 207b, N-(3-chloro-4-fluoro-phenyl)-3-[cyclopropyl(hydroxy)methyl]-7-methyl-1,1-dioxo-3,4-dihydro-2H-pyrrolo[3,4-b][1,4,5]oxathiazepine-6-carboxamide] |  | > 25 µM | 5 nM
CCC1(C)COc2c(cn(C)c2C(=O)Nc2ccc(F)c(F)c2)S(=O)(=O)N1 (single isomer, unassigned) [Compound 134b, N-(3,4-difluorophenyl)-3-ethyl-3,7-dimethyl-1,1-dioxo-2,4-dihydropyrrolo[3,4-b][1,4,5]oxathiazepine-6-carboxamide] |  | > 25 µM | 7 nM
Cn1cc2c(c1C(=O)Nc1ccc(F)c(F)c1)OCC(C)(Cc1cccnc1)NS2(=O)=O (single isomer, unassigned) [Compound 199b, N-(3,4-difluorophenyl)-3,7-dimethyl-1,1-dioxo-3-(3-pyridylmethyl)-2,4-dihydropyrrolo[3,4-b][1,4,5]oxathiazepine-6-carboxamide] |  | > 25 µM | 8 nM
Cc1cc(NC(=O)c2c3c(cn2C)S(=O)(=O)N[C@@H](C(O)C2CC2)CO3)ccc1F (single isomer, unassigned) [Compound 206b, 3-[cyclopropyl(hydroxy)methyl]-N-(4-fluoro-3-methyl-phenyl)-7-methyl-1,1-dioxo-3,4-dihydro-2H-pyrrolo[3,4-b][1,4,5]oxathiazepine-6-carboxamide] |  | > 25 µM | 12 nM
CCC(O)[C@@H]1COc2c(cn(C)c2C(=O)Nc2ccc(F)c(C(F)F)c2)S(=O)(=O)N1 (single isomer, unassigned) [Compound 144b, N-[3-(difluoromethyl)-4-fluoro-phenyl]-3-(1-hydroxypropyl)-7-methyl-1,1-dioxo-3,4-dihydro-2H-pyrrolo[3,4-b][1,4,5]oxathiazepine-6-carboxamide] |  | > 25 µM | 63 nM
